Here are results for one molecule from patent US20240335429A1, “MOLECULAR GLUE AND SALL4 DEGRADER” (National University of Singapore, priority 2021, published 2024).

In series [1] the target is T1, IKZF1 (Homo sapiens, UniProt Q13422).
T1 construct: with immunoblots in SNU-398 HCC cells; endogenous in cells; host or cells: SNU-398 HCC cells
Put plainly: Immunoblot of IKZF1 in SNU-398 HCC cells. The class given is cell-based. Conditions: SNU-398 cells. How it is done:
(§1) RIPA buffer containing freshly added protease inhibitors (2 mM PMSF) and protease inhibitor cocktail was used for cell lysis. The lysed cells were incubated for 10 min on ice and subsequently centrifuged at 4° C. for 10 min at 14,000 rpm. The protein concentrations of cell lysates were assessed using Bradford Assay as per manufacturer's instructions. The samples were denatured using 4× Sample buffer at 95° C. for 5 min. The samples were size resolved using polyacrylamide gel (8%) and Mini-PROTEAN Tetra Cell module. The size-resolved proteins were transferred onto PVDF via electroblotting using Mini Trans-Blot® module. The membrane was blocked using 5% BSA in TBST. The membrane was incubated with appropriate primary antibody (overnight) and secondary antibody (1 h). Immobilon Crescendo Western HRP substrate was used for signal development and images were acquired using darkroom development techniques.

Series [2] relates to SNU-398 cells. The series can be described thus: CellTiter-Glo viability assay, SNU-398. The class given is cell-based, human. Conditions: for IC50: read-out: IC50 of cell proliferation / viability. On the procedure:
(§2) Cells were plated in RPMI culture media (40 μL) in 384-well white, flat-bottom plates (Corning) and incubated at 37° C. in a humidified atmosphere of 5% CO2 overnight. The numbers of cells per well were 1,500 for SNU-398 and SNU-182, 750 for SNU-387, SNU-449, SNU-475 and SNU-423, and 1,000 for H661 and H1299. After overnight incubation, 10 μL of drug (1% DMSO in RPMI) at designed concentrations were added to the cells. The cells were then incubated for 16, 24, 48, 72, or 96 h at 37° C. in a humidified atmosphere of 5% CO2 before CellTiter-Glo reagent (10 μL) was dispensed to the wells. The cells were incubated at room temperature for a minimum of 10 min. After that, luminescence readings were recorded by a Microplate Reader (PHERAstar or Tecan Infinite M200 Pro) according to the manufacturer's instruction for measuring the luminescence.

Series [3] deals with RBBP4. Put plainly: Immunoblot of RBBP4 in SNU-398 cells. Particulars: 16 μM, 24 h. In kind it is cell-based, human. On the procedure: as §1
26S proteasome complex and neddylation was inhibited by cotreating MG132 at 1 and 3 μM and MLN4924 at 10 and 15 μM for 18 h, 20 h, 24 h or 48 h with desired concentrations of QE-18-WG07 in SNU-398, H661 and SNU-182 cells. After 18 h or 24 h of treatment, cells were then lysed and subjected to further protein extraction and immunoblotting by following the protocol in Example 4. For caspase glo assay, 20 h of cotreatment was performed by following the protocol in Example 5. […]

Series [4] relates to SNU-398 xenografts. Put plainly: HCC mouse xenograft, anti-tumor efficacy. Conditions: for tumor shrinkage: 15 days. In kind it is in vivo. On the procedure:
Animals were maintained, and all animal work were performed following the protocols approved by the Institutional Animal Care and Use Committee. The SNU-398 cell line was cultured as described above in ‘Cell Culture’. To establish the SNU-398 xenografts, NOD.Cg−Prkdc^sc^i^dIl2rg^tm^1^Wjl/Sz (NSG) female mice (6-8 weeks) were anesthetized using 2% isoflurane USP, and 0.5×10^6 SNU-398 cells in 200 μL of 1:1 RPMI:Matrigel were subcutaneously injected to the mouse flanks. When tumors were palpable, mice were randomized to receive either QE treatment or vehicle containing 5% DMSO, 12.5% Ethanol, and 12.5% Cremophor EL in 70% 1× PBS. Freshly prepared vehicle or QE-18-WG07 was administered by intraperitoneal (IP) injection, once daily (qd) at 10 mg/kg in the pilot study and 5, 15, and 45 mg/kg for dose-expansion studies. Before each drug injection, mouse weight and tumor volume were monitored. Mice were euthanized once tumors reached more than 1.5 cm in diameter. The tumors were harvested, imaged and snap-frozen for storage at −80° C. until later use.

Series [5] concerns SNU-387, SNU-449, SNU-475, and H1299 cells. Put plainly: CellTiter-Glo viability assay, SALL4-low cell panel. The class given is cell-based, human. Conditions: 72 h cell viability panel of HCC and lung cancer cell lines. On the procedure: as §2
Test in series [6]: as above
In kind it is cell-based, human. Conditions: human, SNU-387, SNU-449, SNU-475 and H1299 cells (SALL4-low); SALL4-low cells, highest dose 30 μM, 72 h; read-out: cells remained viable. How it is done:
as §2

Structures are written as SMILES. Where two headings read alike, the source gives them in different places.

T1 sequence (Q13422 whole entry): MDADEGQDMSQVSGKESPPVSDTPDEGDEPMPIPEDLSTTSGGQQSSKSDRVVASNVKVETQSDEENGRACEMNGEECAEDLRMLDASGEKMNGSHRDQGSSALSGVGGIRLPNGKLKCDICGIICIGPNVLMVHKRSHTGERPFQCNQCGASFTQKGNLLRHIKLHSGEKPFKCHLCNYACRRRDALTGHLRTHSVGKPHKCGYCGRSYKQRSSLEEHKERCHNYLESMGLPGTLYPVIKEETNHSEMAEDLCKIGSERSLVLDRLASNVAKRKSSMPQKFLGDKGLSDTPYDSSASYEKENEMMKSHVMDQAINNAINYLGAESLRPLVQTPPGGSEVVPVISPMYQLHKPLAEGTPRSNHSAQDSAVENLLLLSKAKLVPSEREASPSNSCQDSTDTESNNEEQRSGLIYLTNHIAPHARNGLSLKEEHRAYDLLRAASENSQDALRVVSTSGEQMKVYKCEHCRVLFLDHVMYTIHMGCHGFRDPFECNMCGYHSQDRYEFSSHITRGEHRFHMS

On to `COc1ccccc1NC(=O)Nc1ccc([N+](=O)[O-])cc1O` [QE-18-WG07], for which the “degradation of IKZF1” value in series [1] is reported as “did not degrade”. Besides, the IC50 in series [2] (72 h) worked out at 397 nM; in series [2] (Homo sapiens, SNU-398, 72 h, 72 h), 280 nM. Also, the Emax at 1 µM in series [2] (Homo sapiens, 72 h, achieved at 1 μM, read-out: maximum growth inhibition Emax) is 90 to 100%. Further, in series [2] (Homo sapiens, 72 h cell viability, read-out: half maximal growth inhibition EC50), the EC50 stood at 310 nM. In addition, in series [3], the “effect on the level of RBBP4” value is on record as “no observable effect”. For the same molecule, the tumor shrinkage in series [4] (5 mg/kg IP daily) stood at 40%; in series [4] (15 mg/kg IP daily), 60%; in series [4] (45 mg/kg IP daily) it was 70%. Besides, in series [4] (10 mg/kg IP daily, 10 days), the “reduction of tumor sizes vs vehicle control” value turned out to be 64%. Further, the “selectivity of anti-proliferative effect, SALL4-high over SALL4-low cancer cells” value in series [5] is on record as “up to 58 fold”. The viability at 72 h, 30 μM in series [6] lay in the range of 30 to 60%.
